Test results taken from patent publication US10035818B2, “Polyethylene glycol based prodrug of adrenomedullin and use thereof” (Bayer Pharma Aktiengesellschaft, priority 2011, dated 2018).
Where no end group is shown, it is not given here. Side-chain parts run from the residue outwards. Dab = NCC[C@H](N)C(=O)O

Assays:
normotensive Wistar rats = test: Blood pressure and heart rate in telemetered, normotensive Wistar rats; type: in vivo
Text: The cardiovascular effects induced by compounds according to the invention are investigated in freely moving conscious female Wistar rats (body weight>200 g) by radiotelemetric measurement of blood pressure and heart rate. Briefly, the telemetric system (DSI Data Science International, MN, USA) is composed on 3 basic elements: implantable transmitters (TA11PA-C40), receivers (RA1010) and a computer-based acquisition software (Dataquest™ A.R.T. 4.1 for Windows). Rats are instrumented with pressure implants for chronic use at least 14 days prior to the experiments. The sensor catheter is tied with 4-0 suture several times to produce a stopper 0.5 cm from the tip of the catheter. During catheter implantation rats are anesthetized with pentobabital (Nembutal, Sanofi: 50 mg/kg i.p.). After shaving the abdominal skin, a midline abdominal incision is made, and the fluid-filled sensor catheter is inserted upstream into the exposed descending aorta between the iliac bifurcation and the renal arteries. The catheter is tied several times at the stopper. The tip of the telemetric catheter is located just caudal to the renal arteries and secured by tissue adhesive. The transmitter body is affixed to the inner peritoneal wall before closure of abdomen. A two-layer closure of the abdominal incision is used, with individual suturing of the peritoneum and the muscle wall followed by closure of the outer skin. For postsurgical protection against infections and pain a single dosage of an antibiotic (Oxytetracyclin 10% R, 5.0 ml/kg s.c., beta-pharma GmbH&Co, Germany) and analgesic is injected (Rimadyl R, 5.0 ml/kg s.c., Pfizer, Germany). The hardware configuration is equipped for 24 animals. Each rat cage is positioned on top of an individual receiver platform. After activation of the implanted transmitters, an on-line data acquisition system, samples data and converts telemetric pressure signals to mm Hg. A barometric pressure reference allows for relation of absolute pressure (relative to vacuum) to ambient atmospheric pressure. […]

Göttingen minipigs [1] = test: Acute lung injury in mini pigs induced by oleic acid infusion; type: in vivo
Text: (§1) Acute lung injury is induced in anesthetized mini pigs by use of lipopolysaccharide (LPS) or oleic acid as challenges. In detail: female Göttingen minipigs of ca. 3.5 to 5.5 kg body weight (Ellegaard, Denmark) are kept anesthetized by an continuous i.v.-infusion of Ketavet®, Dormicum® and Pancuronium® after premedication with an intramuscular injection of Ketavet®/Stresnil®. After intratracheal intubation animals are artificially ventilated using a pediatric respirator (Sulla 808V; Dräger, Germany) with an oxygen air mixture at a tidal volume of 30 to 50 ml and constant frequency of 25 min^−1. Arterial PaCO2 is adjusted to about 40 mmHg by […]. […] Cellular content of BALF is determined by use of a blood cell counter (Cell DYN 3700). […]

Göttingen minipigs [2] = test: Acute lung injury in mini pigs induced by intratracheal LPS; type: in vivo
Text: as §1

[3] = biological target: T1, human adrenomedullin-receptor (Homo sapiens, UniProt O60895+Q16602); test: Recombinant adrenomedullin-receptor reporter cell (CHO, aequorin luminescence); type: cell-based; conditions: before incubation; read-out: EC50 T = 0 h
T1 construct: expressed in transfected cells; host or cells: CHO (Chinese hamster ovary) aequorin reporter cell line
Protocol: Activation of the receptor by ligands can be measured by aequorin luminescence. Construction of the cell line and measurement procedure has been described in detail [Wunder F., Rebmann A., Geerts A, and Kalthof B., Mol Pharmacol, 73, 1235-1243 (2008)]. In brief: Cells are seeded on opaque 384-well microtiter plates at a density of 4000 cells/well and are grown for […]. After removal of culture medium, cells are loaded for 3 h with 0.6 μg/ml coelenterazine in Ca^2+-free Tyrode solution (130 mM sodium chloride, 5 mM potassium chloride, 20 mM HEPES (4-(2-hydroxyethyl)-1-piperazineethanesulfonic acid), 1 mM magnesium chloride, and 4.8 mM sodium hydrogen carbonate, pH 7.4) supplemented with 0.2 mM 3-Isobutyl-1-methylxanthine (IBMX) in a cell culture incubator. Compounds are added for 6 min in calcium^2+-free Tyrode solution containing 0.1% bovine serum albumin. Immediately before adding calcium^2+ to a final concentration of 3 mM measurement of the aequorin luminescence is started by use of a suitable luminometer. Luminescence is measured for 60 s.

T1 sequence (Q16602 23-461): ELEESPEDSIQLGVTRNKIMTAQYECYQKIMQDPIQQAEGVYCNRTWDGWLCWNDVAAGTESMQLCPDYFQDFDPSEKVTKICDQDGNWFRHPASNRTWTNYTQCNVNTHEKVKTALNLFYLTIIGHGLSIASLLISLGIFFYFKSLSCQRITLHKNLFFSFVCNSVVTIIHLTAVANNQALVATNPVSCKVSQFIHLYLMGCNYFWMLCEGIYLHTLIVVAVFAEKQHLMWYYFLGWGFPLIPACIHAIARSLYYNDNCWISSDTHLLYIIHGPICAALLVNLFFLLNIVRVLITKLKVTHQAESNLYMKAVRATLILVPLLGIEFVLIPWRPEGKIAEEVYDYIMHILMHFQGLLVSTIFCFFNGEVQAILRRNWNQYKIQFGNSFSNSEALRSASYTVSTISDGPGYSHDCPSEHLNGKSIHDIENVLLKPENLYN
T1 sequence (O60895 43-175): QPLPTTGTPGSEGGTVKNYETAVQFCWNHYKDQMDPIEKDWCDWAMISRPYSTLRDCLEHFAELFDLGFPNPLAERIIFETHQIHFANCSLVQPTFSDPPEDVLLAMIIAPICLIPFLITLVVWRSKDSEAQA

Compound: CC[C@H](C)[C@H](NC(=O)[C@H](CCC(N)=O)NC(=O)[C@H](Cc1c[nH]cn1)NC(=O)[C@H](C)NC(=O)[C@H](CC(C)C)NC(=O)[C@H](CCCCN)NC(=O)[C@H](CCC(N)=O)NC(=O)[C@@H](NC(=O)[C@@H](NC(=O)[C@@H]1CSSC[C@H](NC(=O)CNC(=O)[C@H](Cc2ccccc2)NC(=O)[C@H](CO)NC(=O)[C@H](CCCNC(=N)N)NC(=O)[C@H](CC(C)C)NC(=O)CNC(=O)[C@H](CCC(N)=O)NC(=O)[C@H](Cc2ccccc2)NC(=O)[C@H](CC(N)=O)NC(=O)[C@H](CC(N)=O)NC(=O)[C@H](CCSC)NC(=O)[C@H](CO)NC(=O)[C@H](CCC(N)=O)NC(=O)[C@H](CCCNC(=N)N)NC(=O)[C@@H](N)Cc2ccc(O)cc2)C(=O)N[C@@H](CCCNC(=N)N)C(=O)N[C@@H](Cc2ccccc2)C(=O)NCC(=O)N[C@@H]([C@@H](C)O)C(=O)N1)[C@@H](C)O)C(C)C)C(=O)N[C@@H](Cc1ccc(O)cc1)C(=O)N[C@@H](CCC(N)=O)C(=O)N[C@@H](Cc1ccccc1)C(=O)N[C@H](C(=O)N[C@@H](CC(=O)O)C(=O)N[C@@H](CCCCN)C(=O)N[C@@H](CC(=O)O)C(=O)N[C@@H](CCCCN)C(=O)N[C@@H](CC(=O)O)C(=O)N[C@@H](CC(N)=O)C(=O)N[C@H](C(=O)N[C@@H](C)C(=O)N1CCC[C@H]1C(=O)N[C@@H](CCCNC(=N)N)C(=O)N[C@@H](CO)C(=O)N[C@@H](CCCCN)C(=O)N[C@H](C(=O)N[C@@H](CO)C(=O)N1CCC[C@H]1C(=O)N[C@@H](CCC(N)=O)C(=O)NCC(=O)N[C@@H](Cc1ccc(O)cc1)C(N)=O)[C@@H](C)CC)C(C)C)[C@@H](C)O [ADM, adrenomedullin (human)]
- duration of blood pressure reduction (normotensive Wistar rats): ≤ 4 h
- time after which MABP had returned to base line levels (normotensive Wistar rats; subcutaneous, FIG. 1): about 3.5 hours
- mean reduction of MABP at peak (normotensive Wistar rats; subcutaneous, one hour after administration, FIG. 1): ~20%

Compound: O-{[(3 S)-3-Amino-4-({(2R)-1-amino-3-[(2,5-dioxo-1-{3-oxo-3-[(2-{ω-methoxy-poly-oxyethylen[40 kDa]}ethyl)amino]propyl}pyrrolidin-3-yl)sulfanyl]-1-oxopropan-2-yl}amino)-4-oxobutyl]carbamoyl}-L-tyrosyl-adrenomedullin(2-52) (Y([Dab-Cys‑NH2-succinimide-PEG 40 kDa])RQSMNNFQGLRSFGCRFGTCTVQKLAHQIYQFTDKDKDNVAPRSKISPQGY; cysteine pairing not given here; also: PEG 40 kDa prodrug linker attached by carbamate to Tyr1 phenol O; UniProt P35318 95-146, looked up) [Example 1, PEG 40 kDa based prodrug of adrenomedullin]
- oleic acid induced changes (PAP, EVLWI, PaO2/FiO2) (Göttingen minipigs [1]; administration 15 min before start of the OA infusion): ameliorated or prevented
- doses found to be active (Göttingen minipigs [1]; as referred to the peptide component, oleic acid protocol): ≤ 30 μg/kg body weight
- doses found to be active (Göttingen minipigs [2]; as referred to the peptide component, LPS protocol): ≤ 30 μg/kg body weight
- LPS induced changes (PAP, EVWLI, PaO2/FiO2, cellular content of BALF) (Göttingen minipigs [2]; i.v.-bolus 15 min before the LPS challenge): ameliorated or prevented

Compound: O-{[(3-N-Methyl-amino-4-({(2R)-1-amino-3-[(2,5-dioxo-1-{3-oxo-3-[(2-{ω-methoxy-poly-oxyethylen[40 kDa]}ethyl)amino]propyl}pyrrolidin-3-yl)sulfanyl]-1-oxopropan-2-yl}amino)-4-oxobutyl]carbamoyl}-L-tyrosyl-adrenomedullin(2-52) [Example 2]
- EC50 [3]: > 1000 nM
